In ChEMBL document CHEMBL3259599, “Novel colchicine-site binders with a cyclohexanedione scaffold identified through a ligand-based virtual screening approach” (J Med Chem, 2014):
Activity calls are given as the source filed them. The rule behind the calls is not given here.

What was measured:
Rattus norvegicus = organism: Rattus norvegicus; test: Binding affinity to rat brain tubulin at 37 degC after 1 to 2 mins by DEAE cellulose filter paper method
[1] = Antiproliferative activity against MBEC after 3 days by coulter counter analysis; type: functional, Mus musculus
L1210 = test: Antiproliferative activity against mouse L1210 cells after 48 to 96 hrs by coulter counter analysis; type: functional, cell-based
CCRF-CEM = test: Antiproliferative activity against human CEM cells after 48 to 96 hrs by coulter counter analysis; type: functional, cell-based
[2] = Antiproliferative activity against BAEC after 3 days by coulter counter analysis; type: functional; conditions: Bos taurus, 72 h
HeLa = test: Antiproliferative activity against human HeLa cells after 4 days by coulter counter analysis; type: functional, cell-based; conditions: 96 h
[3] = Antiproliferative activity against HMEC1 after 4 days by coulter counter analysis; type: functional; conditions: Homo sapiens, HMEC-1, 96 h
MDA-MB-231 [4] = test: Competitive binding affinity to beta-tubulin in human MDA-MB-231 cells assessed as inhibition of protein-N/N'-ethylene-bis(iodoacetamide) adduct formation at 0.5 uM preincubated for 16 hrs followed by N/N'-ethylene-bis(iodoacetamide) formation measured after 1.5 hrs by Western blot analysis; type: cell-based
MDA-MB-231 [5] = test: Antiinvasive activity against human MDA-MB-231 cells at 0.08 uM after 17 hrs by Transwell assay; type: functional, cell-based
[6] = Cell cycle arrest in HMEC1 cells assessed as accumulation at subG1 phase at 0.03 uM after 24 hrs by propidium iodide staining-based flow cytometric analysis; type: functional; conditions: Homo sapiens, HMEC-1
HMEC-1 = test: Antivascular activity in HMEC1 cells assessed as destruction of cord like structure at 0.3 to 1 uM after 90 mins by matrigel assay; type: functional, cell-based; conditions: Homo sapiens
MDA-MB-231 [7] = test: Antimigratory activity against human MDA-MB-231 cells at 0.08 uM after 17 hrs by Transwell assay; type: functional, cell-based
MDA-MB-231 [8] = test: Antiproliferative activity against human MDA-MB-231 cells at 0.08 uM after 17 hrs; type: functional, cell-based
[9] = Cell cycle arrest in HMEC1 cells assessed as accumulation at G2/M phase at 0.03 uM after 24 hrs by propidium iodide staining-based flow cytometric analysis; type: functional; conditions: Homo sapiens, HMEC-1
Tubulin (Bos taurus) [10] = target: T1, Tubulin (Bos taurus) (UniProt Q6B856+Q862L2+Q862F3); test: Displacement of MTC from calf brain tubulin colchicine binding site at 20 uM by fluorescence spectroscopic analysis
Tubulin (Bos taurus) [11] = target: T1, Tubulin (Bos taurus); test: Displacement of R-PT from calf brain tubulin at 25 degC by fluorescence spectroscopic analysis
Tubulin (Homo sapiens) = Tubulin (Homo sapiens) (UniProt P68371+Q9H4B7+P0DPH7+P68366+Q13509+Q71U36+P04350+Q3ZCM7+P07437+P68363+Q9BQE3+Q6PEY2+Q13885+Q9BVA1+Q9BUF5)
Description: Binding affinity to tubulin (unknown origin)

[12] = Cell cycle arrest in HMEC1 cells assessed as accumulation at subG1 phase at 1 uM after 24 hrs by propidium iodide staining-based flow cytometric analysis; type: functional; conditions: Homo sapiens, HMEC-1
[13] = Cell cycle arrest in HMEC1 cells assessed as accumulation at G2/M phase at 1 uM after 24 hrs by propidium iodide staining-based flow cytometric analysis; type: functional; conditions: Homo sapiens, HMEC-1

SMILES | IC50 [1] [µM] | IC50 (L1210) [µM] | IC50 (CCRF-CEM) [µM] | IC50 [2] [µM] | IC50 (HeLa) [µM] | IC50 [3] [µM] | further results
COc1cc([C@@H]2c3cc4c(cc3[C@H](O)[C@H]3COC(=O)[C@H]23)OCO4)cc(OC)c1OC |  |  |  |  |  |  | Ka (Rattus norvegicus): 1.8 ×10⁶ /M
CC(Nc1ccccc1C)=C1C(=O)CC(c2cccc(O)c2)CC1=O (stereo not drawn) | 2.5 | 3.5 | 6.2 | 2.1 | 4.1 | 2.2 | 
COc1cc2c(c(OC)c1OC)-c1ccc(OC)c(=O)cc1[C@@H](NC(C)=O)CC2 [COLCHICINE] | 0.031 | 0.01 |  | 0.0069 |  |  | inhibition (MDA-MB-231 [4]): Active; inhibition (MDA-MB-231 [5]): Active; Activity [6]: Active; Activity (HMEC-1): Active; inhibition (MDA-MB-231 [7]): Active; Activity (MDA-MB-231 [8]): Active; Activity [9]: Active
CCCC(Nc1ccccc1C)=C1C(=O)CC(c2ccccc2)CC1=O (stereo not drawn) | 47 | 41 | ≥ 100 | 46 | > 100 | 44 | 
COc1ccccc1NC(C)=C1C(=O)CC(c2c(C)cccc2C)CC1=O (stereo not drawn) | 39 | 24 | 23 | 41 | 55 | 35 | 
COc1ccccc1NC(C)=C1C(=O)CC(C)(C)CC1=O | 71 | > 100 | > 100 | 48 | > 100 | 76 | 
CC(Nc1ccccc1Cl)=C1C(=O)CC(c2ccccc2)CC1=O (stereo not drawn) | 0.47 | 0.7 | 0.64 | 0.29 | 0.71 | 0.56 | 
COc1cccc(C2CC(=O)C(=C(C)Nc3ccccc3OC)C(=O)C2)c1 (stereo not drawn) | 0.41 | 0.21 | 0.24 | 0.23 | 0.69 | 0.3 | inhibition (Tubulin (Bos taurus) [10]): Active; Ka (Tubulin (Bos taurus) [11]): 7.5 ×10⁶ /M
COc1ccccc1NC(C)=C1C(=O)CC(c2ccc(C)cc2)CC1=O (stereo not drawn) | 9.2 | > 100 | > 100 | 8.4 | 90 | 11 | 
CCC(Nc1ccc(O)cc1)=C1C(=O)CC(c2ccccc2)CC1=O (stereo not drawn) | 18 | 14 | 34 | 36 | 79 | 28 | 
COc1ccc(C2CC(=O)C(=C(C)Nc3ccccc3OC)C(=O)C2)cc1 (stereo not drawn) | > 100 | > 100 | > 100 | > 100 | > 100 | > 100 | 
CCC(Nc1cc(OC)c(OC)c(OC)c1)=C1C(=O)CC(c2ccccc2)CC1=O (stereo not drawn) | > 100 | > 100 | > 100 | > 100 | > 100 | > 100 | 
COc1ccccc1NC(C)=C1C(=O)CC(c2ccc(Cl)cc2)CC1=O (stereo not drawn) | 46 | 22 | 28 | 42 | 58 | 55 | 
CCC(Nc1ccc(OC)cc1)=C1C(=O)CC(c2ccccc2)CC1=O (stereo not drawn) | 57 | 58 | 67 | ≥ 100 | ≥ 100 | ≥ 100 | 
COc1ccccc1NC(C)=C1C(=O)CC(c2c(F)cccc2F)CC1=O (stereo not drawn) | 60 | > 100 | > 100 | > 100 | > 100 | 39 | 
COc1ccccc1NC(C)=C1C(=O)CC(c2ccc(F)cc2)CC1=O (stereo not drawn) | 2.1 | 3.3 | 5.3 | 1.7 | 4 | 1.8 | 
CCC(Nc1ccc2c(c1)OCO2)=C1C(=O)CC(c2ccccc2)CC1=O (stereo not drawn) | 50 | 38 | 53 | 43 | 76 | 53 | 
COc1cccc(OC)c1NC(C)=C1C(=O)CC(c2ccccc2)CC1=O (stereo not drawn) | 1.2 | 1 | 1.4 | 0.46 | 1.1 | 1.4 | 
CCC(Nc1cccc(O)c1)=C1C(=O)CC(c2ccccc2)CC1=O (stereo not drawn) | 12 | 15 | 48 | 7.8 | 75 | 13 | 

SMILES | IC50 [1] [µM] | IC50 (L1210) [µM] | IC50 (CCRF-CEM) [µM] | IC50 [2] [µM] | IC50 (HeLa) [µM] | IC50 [3] [µM] | further results
COc1cccc(C2CC(=O)C(=C(C)Nc3ccccc3C)C(=O)C2)c1 (stereo not drawn) | 0.64 | 0.26 | 0.72 | 0.48 | 0.66 | 0.67 | 
COc1ccccc1NC(C)=C1C(=O)CC(Cc2ccccc2)CC1=O (stereo not drawn) | 87 | > 100 | > 100 | > 100 | > 100 | 22 | 
COc1ccccc1NC(C)=C1C(=O)CC(c2ccccc2C)CC1=O (stereo not drawn) | 6.8 | 11 | 7.2 | 3.2 | 13 | 5.8 | 
COc1ccc(OC)c(NC(C)=C2C(=O)CC(c3ccccc3)CC2=O)c1 (stereo not drawn) | 3.2 | 36 | > 6 | 2.6 | 46 | 2.6 | 
COC(=O)Nc1nc2cc(C(=O)c3cccs3)ccc2[nH]1 |  |  |  |  |  |  | Ka (Tubulin (Homo sapiens)): 4 ×10⁵ /M
CC(Nc1ccccc1C)=C1C(=O)CC(c2ccccc2)CC1=O (stereo not drawn) | 0.32 | 0.3 | 0.68 | 0.17 | 0.48 | 0.26 | Activity [12]: Active; Activity [13]: Active
CCC(Nc1cccc(OC)c1)=C1C(=O)CC(c2ccccc2)CC1=O (stereo not drawn) | 16 | 32 | 45 | 64 | 66 | 18 | 
CCC(Nc1ccccc1)=C1C(=O)CC(c2ccccc2)CC1=O (stereo not drawn) | 8.3 | 22 | 21 | 16 | 56 | 15 | 
COc1ccccc1NC(C)=C1C(=O)CC(c2cccc(C)c2)CC1=O (stereo not drawn) | 0.42 | 0.17 | 0.31 | 0.26 | 0.79 | 0.33 | 
CC(Nc1ccccc1C(F)(F)F)=C1C(=O)CC(c2ccccc2)CC1=O (stereo not drawn) | 8.7 | 14 | 18 | 8.1 | 32 | 7.7 | 
CCCC(Nc1ccccc1OC)=C1C(=O)CC(c2ccccc2)CC1=O (stereo not drawn) | 27 | 36 | 41 | 16 | 59 | 31 | 
COc1ccccc1NC(C)=C1C(=O)CC(c2ccccc2F)CC1=O (stereo not drawn) | 5.4 | 6.3 | 4.9 | 2.7 | 4.8 | 4.3 | 
CCC(Nc1ccc(OC)c(OC)c1)=C1C(=O)CC(c2ccccc2)CC1=O (stereo not drawn) | > 100 | > 100 | > 100 | > 100 | > 100 | > 100 | 
CC(Nc1ccccc1F)=C1C(=O)CC(c2ccccc2)CC1=O (stereo not drawn) | 1 | 1.9 | 1.1 | 0.51 | 3.4 | 0.93 | 
CCC(Nc1ccccc1C)=C1C(=O)CC(c2ccccc2)CC1=O (stereo not drawn) | 2.8 | 6.9 | 6.3 | 2.2 | 9.2 | 2.1 | 
COc1ccccc1NC(C)=C1C(=O)CC(C2CCCCC2)CC1=O (stereo not drawn) | 21 | > 8 | 15 | 12 | 11 | 12 | 
CCC(Nc1ccccc1OC)=C1C(=O)CC(c2ccccc2)CC1=O (stereo not drawn) | 1.4 | 1.5 | 2.3 | 1.2 | 4.3 | 1.4 | inhibition (Tubulin (Bos taurus) [10]): Active; Ka (Tubulin (Bos taurus) [11]): 7.1 ×10⁶ /M
CC(Nc1cccc(F)c1F)=C1C(=O)CC(c2ccccc2)CC1=O (stereo not drawn) | 12 | 19 | 25 | 14 | 36 | 10 | 
CC(Nc1c(F)cccc1F)=C1C(=O)CC(c2ccccc2)CC1=O (stereo not drawn) | 9.2 | 11 | 21 | 8.4 | 17 | 6.6 | 
